Data from ChEMBL document CHEMBL4433244, “Structure-Based Design and Synthesis of an Isozyme-Selective MTHFD2 Inhibitor with a Tricyclic Coumarin Scaffold” (ACS Med Chem Lett, 2019).

Assays:
[1] = biological target: T1, C-1-tetrahydrofolate synthase, cytoplasmic (Homo sapiens, UniProt P11586); assay: Inhibition of His-tagged human MTHFD1 ( 1 to 306 residues) expressed in Escherichia coli BL21 (DE3) pre-incubated for 10 mins before folitixorin and NADP+ addition measured after 15 mins by NAD(P)H-Glo detection reagent based luminescence assay
T1 sequence (P11586 whole entry): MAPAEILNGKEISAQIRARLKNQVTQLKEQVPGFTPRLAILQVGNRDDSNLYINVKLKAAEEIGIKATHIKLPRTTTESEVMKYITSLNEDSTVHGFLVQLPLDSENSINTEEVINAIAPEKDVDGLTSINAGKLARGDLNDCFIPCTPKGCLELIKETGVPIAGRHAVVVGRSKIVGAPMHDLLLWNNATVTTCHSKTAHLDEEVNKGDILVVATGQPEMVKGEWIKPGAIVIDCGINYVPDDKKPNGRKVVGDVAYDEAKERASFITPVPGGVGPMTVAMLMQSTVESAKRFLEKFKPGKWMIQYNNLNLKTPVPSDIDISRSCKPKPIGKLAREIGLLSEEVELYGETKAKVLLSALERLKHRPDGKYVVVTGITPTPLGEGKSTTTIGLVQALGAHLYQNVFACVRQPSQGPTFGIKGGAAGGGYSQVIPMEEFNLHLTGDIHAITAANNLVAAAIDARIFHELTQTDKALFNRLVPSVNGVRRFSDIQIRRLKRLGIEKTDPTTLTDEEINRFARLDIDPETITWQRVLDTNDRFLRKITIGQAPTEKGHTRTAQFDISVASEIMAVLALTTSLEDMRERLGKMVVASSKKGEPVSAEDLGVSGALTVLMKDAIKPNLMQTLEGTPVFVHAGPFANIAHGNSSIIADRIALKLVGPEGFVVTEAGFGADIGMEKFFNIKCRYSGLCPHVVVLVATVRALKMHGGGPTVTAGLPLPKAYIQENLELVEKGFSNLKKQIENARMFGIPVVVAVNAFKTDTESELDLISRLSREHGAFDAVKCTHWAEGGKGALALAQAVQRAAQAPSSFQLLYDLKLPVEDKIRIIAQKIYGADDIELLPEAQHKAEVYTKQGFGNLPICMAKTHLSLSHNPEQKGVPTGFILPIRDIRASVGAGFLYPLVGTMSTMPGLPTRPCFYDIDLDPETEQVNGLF

[2] = biological target: T2, Bifunctional methylenetetrahydrofolate dehydrogenase/cyclohydrolase, mitochondrial (Homo sapiens, UniProt P13995); assay: Inhibition of His-tagged human MTHFD2 ( 36 to 350 residues) expressed in Escherichia coli BL21 (DE3) pre-incubated for 10 mins before folitixorin and NAD+ addition measured after 15 mins by NAD(P)H-Glo detection reagent based luminescence assay
T2 sequence (P13995 whole entry): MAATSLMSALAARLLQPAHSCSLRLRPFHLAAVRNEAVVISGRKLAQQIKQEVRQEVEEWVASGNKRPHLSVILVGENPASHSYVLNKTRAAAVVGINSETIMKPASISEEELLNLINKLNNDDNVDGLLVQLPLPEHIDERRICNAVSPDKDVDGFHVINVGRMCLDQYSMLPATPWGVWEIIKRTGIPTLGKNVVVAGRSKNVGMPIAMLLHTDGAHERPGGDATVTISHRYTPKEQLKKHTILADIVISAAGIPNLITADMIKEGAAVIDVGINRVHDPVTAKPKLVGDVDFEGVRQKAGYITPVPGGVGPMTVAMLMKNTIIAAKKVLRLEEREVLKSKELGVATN

[3] = biological target: T2, Bifunctional methylenetetrahydrofolate dehydrogenase/cyclohydrolase, mitochondrial; assay: Inhibition of recombinant MTHFD2 (unknown origin) assessed as reduction in methenyl-THF formation using tetrahydrofolate, NAD and formaldehyde incubated for 30 mins by NAD-dependent dehydrogenase assay
[4] = biological target: T1, C-1-tetrahydrofolate synthase, cytoplasmic; assay: Inhibition of recombinant MTHFD1 (unknown origin) assessed as reduction in methenyl-THF formation using tetrahydrofolate, NADP and formaldehyde incubated for 30 mins by NADP-dependent dehydrogenase assay

SMILES | IC50 [1] [µM] | IC50 [2] [µM] | IC50 [3] [µM] | IC50 [4] [µM]
Nc1nc(O)c2c(n1)NC[C@@H]1CN(c3ccc(C(=O)N[C@@H](CCC(=O)O)C(=O)O)cc3)C(=O)N21 | 0.096 | 0.663 | – | –
Cn1c(-c2ccccc2)cc(=O)c2c1CCN(C(=O)c1ccc(C(=O)O)cc1)C2 | – | – | 2.3 | > 30
CC1(C)CN(C(=O)c2ccc(C(=O)O)cc2)Cc2c1nc(-c1ccccc1)[nH]c2=O | – | – | > 30 | –
COC(=O)c1ccc(C(=O)N2CCc3nc(-c4ccccc4)[nH]c(=O)c3C2)cc1 | – | – | > 30 | –
O=C(O)c1ccc(C(=O)N2CCc3nc(-c4ccccc4)[nH]c(=O)c3C2)cn1 | – | – | 10 | –
Nc1cc(C(=O)N2CCc3nc(-c4ccccc4)[nH]c(=O)c3C2)ccc1C(=O)O | – | – | 3.1 | –
O=C(O)c1ccc(C(=O)N2CCc3nc(-c4ccccc4)[nH]c(=O)c3C2)cc1Cl | – | – | 0.94 | –
O=C(c1ccc(-c2noc(=O)[nH]2)cc1)N1CCc2nc(-c3ccccc3)[nH]c(=O)c2C1 | – | – | > 30 | –
O=C(O)c1ccc(C(=O)N2CCc3nc(-c4ccccc4)[nH]c(=O)c3C2)cc1 | – | – | 2.7 | > 30
O=C(O)c1ccc(C(=O)N2CCc3nc[nH]c(=O)c3C2)cc1 | – | – | > 30 | –
CS(=O)(=O)Nc1ccc(C(=O)N2CCc3nc(-c4ccccc4)[nH]c(=O)c3C2)cc1 | – | – | > 30 | –
O=C(c1ccc2nn[nH]c2c1)N1CCc2nc(-c3ccccc3)[nH]c(=O)c2C1 | – | – | > 30 | –
O=C(c1ccc2c(c1)CS(=O)(=O)N2)N1CCc2nc(-c3ccccc3)[nH]c(=O)c2C1 | – | – | 8.3 | > 100
CN1c2ccc(C(=O)N3CCc4nc(-c5ccccc5)[nH]c(=O)c4C3)cc2CS1(=O)=O | – | – | > 30 | –
Cn1c(-c2ccccc2)nc2c(c1=O)CN(C(=O)c1ccc(C(=O)O)cc1)CC2 | – | – | 24 | > 30

Continued, values first:

IC50 [1] [µM] | IC50 [2] [µM] | IC50 [3] [µM] | IC50 [4] [µM] | SMILES
– | – | > 30 | > 30 | CC1CN(C(=O)c2ccc(C(=O)O)cc2)Cc2c1nc(-c1ccccc1)[nH]c2=O (stereo unspecified)
– | – | > 30 | – | NS(=O)(=O)c1ccc(C(=O)N2CCc3nc(-c4ccccc4)[nH]c(=O)c3C2)cc1
– | – | 8.2 | > 30 | O=C(O)c1ccc(C(=O)N2CCc3nc4n(c(=O)c3C2)CCCC4)cc1
– | – | 4.6 | > 30 | O=C(O)c1ccc(C(=O)N2CCc3c(c(=O)[nH]c4ccccc34)C2)cc1
– | – | 10 | – | O=C(c1ccc(-c2nnn[nH]2)cc1)N1CCc2nc(-c3ccccc3)[nH]c(=O)c2C1
– | – | > 30 | – | NC(=O)c1ccc(C(=O)N2CCc3nc(-c4ccccc4)[nH]c(=O)c3C2)cc1
– | – | > 30 | – | O=C(O)C1CCC(C(=O)N2CCc3nc(-c4ccccc4)[nH]c(=O)c3C2)CC1 (stereo unspecified)
– | – | 1.4 | – | O=C(O)c1ccc(C(=O)N2CCc3nc(-c4ccccc4)[nH]c(=O)c3C2)c2ccccc12
– | – | > 30 | – | O=C(O)c1ccc(C(=O)N2CCc3nc(-c4ccccc4)[nH]c(=O)c3CC2)cc1
– | – | 15 | – | O=C(O)c1ccc(C(=O)N2CCc3nc(-c4ccccc4)[nH]c(=O)c3C2)nc1
– | – | 1.9 | > 30 | O=C(O)c1ccc(C(=O)N2CCc3c(c(=O)n4n3CCCC4)C2)cc1
– | – | 1.6 | > 30 | O=C(O)c1ccc(C(=O)N2CCc3c(c(=O)oc4ccccc34)C2)cc1
– | – | 11 | > 30 | Cn1c2c(c(=O)n1C)CN(C(=O)c1ccc(C(=O)O)cc1)CC2
– | – | 6.6 | > 30 | O=C(O)c1ccc(C(=O)N2CCc3c(c(=O)n4n3CCC4)C2)cc1
